According to US20090312406A1, “COUMARIN COMPOUNDS AND THEIR USE FOR TREATING VIRAL INFECTION” (priority 2008, published 2009):
Like-named read-outs stand apart in the source and are kept apart here.

Experiments:
[1] = test system: HIV-1; assay: Inhibition of HIV-1 replication in peripheral blood mononuclear cells, viral RNA by real-time PCR; conditions: Human immunodeficiency virus 1, PBMC
Description: Equal amounts of wild-type and mutant viruses were used to infect 5×10^4 peripheral blood mononuclear cells (PBMC) in 1.5 mL medium containing DMSO or various concentrations of a test compound. A half-milliliter of the culture medium was collected from each culture at days 3, 5, and 7. Viral RNA was extracted from the collected culture supernatants and the viral titers (copies/mL) were determined by real-time PCR. The percentage of inhibition was calculated as [100−(VD/VC)]×100%, where VD and VC refer to the virus titers in the presence and absence of the test compound, respectively.

[2] = test system: Influenza A/WSN/33 (H1N1) virus; assay: In vitro anti-influenza virus assay (neutralization test), cytopathic effect on MDCK cells; type: cell-based
Description: (§1) Anti-influenza activities of the coumarin compounds were evaluated by measuring the ability of a test compound to inhibit the cytopathic effect induced by an influenza virus on MDCK cells. The 96-well tissue culture plates were seeded with 200 μL of MDCK cells at a concentration of 1.1×10^5 cells/mL in DMEM with 10% fetal bovine serum (FBS). The plates were incubated for 24-30 h at 37° C. and were used at about 90% confluency. Influenza A/WSN/33 (H1N1) virus (100 TCID50) was added to the cells and incubated at 35° C. for 1 h. After adsorption, the infected cell plates were overlaid with 50 μL of DMEM plus 2% FBS and a test compound with different concentrations. The plate was incubated at 35° C. for 72 h. At the end of incubation, the plates were fixed by the addition of 100 μL of 4% formaldehyde for 1 h at room temperature. After the removal of formaldehyde, the plates were stained with 0.1% crystal violet for 15 min at room temperature. The plates were washed and dried, and the density of the well was measured at 570 nm. The concentration required for a test compound to reduce the virus-induced cytopathic effect (CPE) by 50% relative to the virus control was expressed as IC50.
(§2) Compounds 1 and 95 were also tested on various influenza virus strains. Amantadine or Relenza was also tested for comparison. IC50 is defined as the concentration required for a test compound to reduce the virus-induced cytopathic effect (CPE) by 50% relative to the virus control.

[3] = test system: Influenza A/TW/785/05 (H1N1); assay: Anti-influenza CPE neutralization test on MDCK cells; type: cell-based; conditions: Influenza A virus
Description: as §1, §2

[4] = test system: Influenza B/TW/710/05; assay: as above; type: cell-based; conditions: Influenza B virus, Influenza B/TW/710/05, CPE
Description: as §1, §2

[5] = test system: Influenza B/TW/99/07; assay: as above; type: cell-based; conditions: Influenza B virus, Influenza B/TW/99/07, CPE
Description: as §1, §2

[6] = test system: Influenza A/Udorn/72 (H3N2); assay: as above; type: cell-based; conditions: Influenza A virus
Description: as §1, §2

[7] = test system: Influenza B/TW/70325/05; assay: as above; type: cell-based; conditions: Influenza B virus, Influenza B/TW/70325/05, CPE
Description: as §1, §2

[8] = test system: Influenza A/TW/83/05 (H3N2); assay: as above; type: cell-based; conditions: Influenza A virus
Description: as §1, §2

[9] = test system: Enterovirus 71 (4643); assay: In vitro EV 71 neutralization assay, cytopathic effect on RD cells; type: cell-based; conditions: Enterovirus A
Description: (§3) This assay measured the ability of a test compound to inhibit the cytopathic effect induced by a picornavirus (EV71, Coxsackie Virus B3, or human rhinovirus 2) on RD cells. The method used for this assay is described in Chang et al., J Med Chem, 2005, 48(10), 3522-3535. More specifically, 96-well tissue culture plates were seeded with 200 μL of RD cells at a concentration of 3×10^5 cells/mL in DMEM with 10% FBS. The plates were incubated for 24-30 h at 37° C. and were used at about 90% confluency. Virus (100 TCID50) mixed with different concentrations of a test compound was added to the cells and incubated at 37° C. for 1 h. After adsorption, the infected cell plates were overlaid with 50 μL of DMEM plus 5% FBS and 2% DMSO. The plate was wrapped in Parafilm and incubated at 37° C. for 64 h. At the end of incubation, the plates were fixed by the addition of 100 μL of 0.5% glutaraldehyde for 1 h at room temperature. After the removal of glutaraldehyde, the plates were stained with 0.1% crystal violet for 15 min at room temperature. The plates were washed and dried, and the density of the well was measured at 570 nm. The concentration required for a test compound to reduce the virus-induced cytopathic effect (CPE) by 50% relative to the virus control is expressed as IC50.

[10] = test system: Coxsackie B virus 3; assay: In vitro Coxsackie Virus B3 neutralization assay, cytopathic effect on RD cells; type: cell-based; conditions: Coxsackie B virus 3, RD cells, CPE
Description: as §3

[11] = test system: Human rhinovirus 2; assay: In vitro human rhinovirus 2 neutralization assay, cytopathic effect on RD cells; type: cell-based; conditions: Rhinovirus A
Description: as §3

[12] = test system: EBV; assay: In vitro EBV assay, EBV reactivation in NA cells by anti-EBV-EAD immunofluorescence; type: cell-based, Epstein-Barr virus (EBV); conditions: human gammaherpesvirus 4; EBV reactivation by TPA/SB in NA cells, compound added 24 h before; read-out: EC50 (concentration reducing 50% of virus replication numbers)
Description: The method used for this assay is described in Chang et al., J Virol, 1999, 73, 8857-8866 and Tsai et al., J Virol Methods, 1991, 33, 47-52.
To suppress EBV reactivation, a test compound was added to the NA cell culture medium at indicated final concentration 24 h prior to 12-o-tetradecanoylphorbol-13-acetate (TPA)/sodium n-butyrate (SB) treatment. After treatment, the cells were fixed and assayed by anti-EBV-EAD immunofluorescence for detection of EBV reactivation. […] NA cells were subjected to treatment with the test compound 24 h prior to the addition of TPA/SB. […] Cells were stained with anti-EBV EAD antibody. […] The minimal concentration of the test compound required to reduce 50% of virus replication numbers (EC50) was calculated from regression analysis of the dose-response curves obtained from anti-EBV-EAD immunofluorescence.

[13] = test system: HSV-1; assay: In vitro HSV-1 plaque reduction assay in Vero cells (Example 5); type: cell-based; conditions: Human alphaherpesvirus 1; HSV-1, Vero cells, 72 h; read-out: EC50 (concentration reducing 50% of plaque numbers)
Description: The method used for this assay is described in Su et al., Antiviral Res., 2008, 79(1), 62-70.
Vero cells were seeded onto a 96-well culture plate at a concentration of 10^4 cells per well one day before infection. Next day, medium was removed and 10 plaque forming unit (pfu) HSV-1 suspension per well were added and incubated at 37° C. with 5% CO2 for 1 h. The infected cell monolayer was then washed with phosphate buffered saline (PBS) and cultured in maintenance medium containing 1 μM of compounds. After 72 h of incubation at 37° C., cell monolayer was fixed with 10% formalin and stained with 1% crystal violet.
Plaque assays were performed with monolayer cultures of Vero cells in 24-well culture plates. For plaque reduction assay, cell monolayer was infected with virus (50 pfu/well) and incubated at 37° C. with 5% CO2 for 1 h. The infected cell monolayer was then washed three times with PBS and overlaid with overlapping solution (maintenance medium containing 1% methylcellulose and various concentrations of indicated compounds). After 72 h of incubation at 37° C., cell monolayer was fixed with 10% formalin and stained with 1% crystal violet. […] The minimal concentration of compounds required to reduce 50% of plaque numbers (EC50) was calculated by regression analysis of the dose-response curves generated from plaque assays.

[14] = Cytotoxicity (CC50) of the compounds tested in the anti-HSV assay; type: cell-based; conditions: African green monkey, Vero cells; Table 5; read-out: CC50 (μM), 50% cytotoxicity concentration
[15] = test system: herpes simplex virus type 1; assay: In vitro assessment of anti-HSV activity, plaque reduction assay in Vero cells (Example 8); type: cell-based; conditions: for SI, selectivity index = CC50/EC50: CC50/EC50, HSV-1; for EC50: Human alphaherpesvirus 1, herpes simplex virus type 1, Vero cells, plaque reduction, 72 h, read-out: EC50 (μM), 50% effective concentration
Description: Anti-HSV activities of compounds described herein were evaluated by performing a plaque reduction assay using monolayer cultures of Vero cells in 24-well culture plates. A cell monolayer was infected with herpes simplex virus type 1 (50 pfu/well) and incubated at 37° C. with 5% CO2 for 1 h. The infected cell monolayer was then washed three times with PBS and overlaid with a solution (maintenance medium containing 1% methylcellulose and various concentrations of a test compound). After 72 h of incubation at 37° C., the cell monolayer was fixed with 10% formalin and stained with 1% crystal violet. […] The minimal concentration of a compound required to reduce 50% of plaque numbers (EC50) was calculated by regression analysis of the dose-response curves generated from the plaque assay.

[16] = test system: Influenza A/TW/141/04 (H1N1); assay: Anti-influenza CPE neutralization test on MDCK cells; type: cell-based; conditions: Influenza A virus
Description: as §1, §2

[17] = test system: Influenza A/TW/3446/04 (H3N2); assay: as above; type: cell-based; conditions: Influenza A virus
Description: as §1, §2

[18] = 72 h, read-out: Inhibition (%) Day 3
[19] = 120 h, read-out: Inhibition (%) Day 5
[20] = 168 h, read-out: Inhibition (%) Day 7
[21] = MDCK, CPE, Table 2, read-out: IC50
[22] = MDCK cells, 72 h, lower bound (10 nM), upper in μM, read-out: IC50 (concentration reducing virus-induced cytopathic effect by 50%)

| SMILES | IC50 [2, 21] | IC50 [4] | IC50 [5] | IC50 [7] | inhibition at 0.1 µM [1, 18] | inhibition at 0.1 µM [1, 19] | inhibition at 0.1 µM [1, 20] | IC50 [2, 22] | CC50 [14] | SI, selectivity index = CC50/EC50 [15] | EC50 [15] | further results |
| --- | --- | --- | --- | --- | --- | --- | --- | --- | --- | --- | --- | --- |
| Cc1cn([C@H]2C[C@H](N=[N+]=[N-])[C@@H](CO)O2)c(=O)[nH]c1=O [AZT, zidovudine, reference compound] |  |  |  |  |  |  |  |  |  |  |  | inhibition at 0.05 µM [1, 18]: 6%; inhibition at 0.05 µM [1, 19]: 71%; inhibition at 0.05 µM [1, 20]: 88% |
| NC12CC3CC(CC(C3)C1)C2 [Amantadine] | > 25000 nM | > 25000 nM | > 25000 nM | > 25000 nM |  |  |  |  |  |  |  | IC50 [3]: 382 ± 238 nM; IC50 [6]: 980 ± 147 nM; IC50 [8]: > 25000 nM; IC50 ([9]; RD): > 25000 nM; IC50 [10]: > 25000 nM; IC50 ([11]; RD): > 25000 nM |
| Cc1cc(=O)oc2c1ccc1oc(C(=O)c3ccccc3)c(-c3ccccc3)c12 [Compound 1, 8-benzoyl-4-methyl-9-phenyl-furo[2,3-h]chromen-2-one] | 119 ± 43 nM | 102 ± 20 nM | 89 ± 14 nM | 67 ± 2 nM | 2% | 82% | 91% | 10 to 999 nM |  |  |  | EC50 [12]: < 500 nM; EC50 [13]: ~500 nM; IC50 [3]: 52 ± 1 nM; IC50 [6]: 347 ± 188 nM; IC50 [8]: 57 ± 6 nM; IC50 ([9]; Enterovirus 71 (4643), RD cells, CPE, read-out: IC50): 2 ± 1 nM; IC50 [10]: 5 ± 1 nM; IC50 ([11]; Human rhinovirus 2, RD cells, CPE, read-out: IC50): 12 ± 1 nM |
| Cc1cc(=O)oc2c1ccc1oc(C(=O)c3cccc(O)c3)c(-c3ccccc3)c12 [Compound 33] |  |  |  |  | 5% | 98% | 99.5% | 10 to 999 nM | 93.4 µM | 235.972 | 0.396 µM |  |
| Cc1cc(=O)oc2c1ccc1oc(C(=O)c3cccs3)c(-c3ccccc3)c12 [Compound 95] | 70 ± 10 nM | 90 ± 10 nM | 40 ± 10 nM | 90 ± 10 nM | 42% | 89% | 99% | 10 to 999 nM | > 100 µM | >1666.666 | 0.06 µM | IC50 [16]: 90 ± 10 nM; IC50 [17]: 150 ± 10 nM |
| Cc1cc(=O)oc2c1ccc1oc(C(=O)c3ccccc3)c(-c3ccc(F)cc3)c12 [Compound 134] |  |  |  |  | 61% | 91% | 96% | 10 to 999 nM | > 100 µM | >3095.975 | 0.0323 µM |  |
| Cc1cc(=O)oc2c1ccc1oc(C(=O)c3ccccc3)c(-c3ccc(Br)cc3)c12 [Compound 140] |  |  |  |  | 19% | 65% | 93% | 10 to 999 nM | > 100 µM | >291.545 | 0.343 µM |  |
